Like-named read-outs stand apart in the source and are kept apart here.
What was measured:
[1] = Stability in solution (water, 0.1M HCl, 0.1M NaOH, 60° C., HPLC); assay type: physicochemical
Method: (§1) In this example the stability of Compound 1 of the invention are compared to those of a close analogue of the prior art, i.e. 1,3-dihydro-1-[2-hydroxy-5-(trifluoromethyl)phenyl]-5-(trifluoromethyl)-2H-Benzimidazol-2-one (i.e. NS1619 described in WO 01/54771) herein designated the Reference Compound.
The stability is determined in neutral (H2O), in basic (0.1M NaOH) and in acidic solution (0.1M HCl).
50 ml of water was added to 27 mg of the reference compound. The compound was only partly dissolved. The suspension was stored at 60° C. and after 24 hours 25 ml of methanol was added in order to completely dissolve reference compound. The solution was stored for further 4 hours and then analysed by HPLC (t=28 hours).
50 ml of 0.1M hydrochloric acid was added to 27 mg of the reference compound. The compound was only partly dissolved. The suspension was stored at 60° C. and after 48 hours 25 ml of methanol was added in order to completely dissolve he reference compound. The solution was stored for further 4. hours and then arialysed by HPLC (t=52 hours).
50 ml of 0.1M sodium hydroxide was added to 24 mg of the reference compound. The compound was completely dissolved. The solution was stored at 60° C. and analysed by HPLC after 2 hours (t=2 hours).
(§2) 50 ml of water was added to 25 mg of Compound 1. The compound was only partly dissolved. The suspension was stored at 60° C., and after 48 hours, 25 ml of acetonitrile was added in order to completely dissolve Compound 1. The solution was stored for further 24 hours and then analysed by HPLC (t=72 hours).
as §2, with “of 0.1M hydrochloric acid” for “of water”, “to 27” for “to 25”, “was only-partly” for “was only partly”
50 ml of 0.1M sodium hydroxide was added to 26 mg of Compound 1. The compound was completely dissolved. The solution was stored at 60° C. and analysed by HPLC after 72 hours (t=72 hours).

[2] = Pharmacokinetic parameters in rats (i.v. and p.o. dosing, plasma LC-MS/MS); assay type: in vivo, male Wistar rats; conditions: rat; for half-life / Cmax / Tmax / bioavailability / Vd: male, Wistar, plasma
Method: as §1, with “pharmacokinetic parameters” for “stability”, “described” for “described in”, “01/54711)” for “01/54771)”
The blood samples were centrifuged at 1.300 g at 4° C. for 25 minutes and the resulting plasma samples were stored at <−15° C. pending analysis.
The compounds were dosed as clear solutions in phosphate buffer/Tween 80 (90:10) in a concentration of 3 mg/ml.
Aliquots of samples, calibrants and QC's (100 μl) were pipetted into 1.5 ml eppendorf tubes. To each tube (except matrix blank) was added 300 μl acetonitrile with internal standards. Matrix blank was added 300 μl acetonitrile without internal standard.
The tubes were shaken on a whirlimixer and then centrifuged for 25 minutes at 16.000 g at 5° C. to precipitate proteins.
An aliquot (200 μl) of the supernatant was transferred to another 1.5 ml eppendorf tube and evaporated to dryness under a gentle stream of nitrogen at 40° C. Then the samples were reconstituted in […] (initial composition).
Incorporating the data from the rat plasma analyses, the pharmacokinetic parameters were calculated using WinNonLin Professional Edition version 2.0.

[3] = biological target: T1, large conductance calcium-activated potassium (BKCa) channels (Cavia porcellus, UniProt A0A286XP95); conditions: guinea pig airways, via activation of BKCa channels; cited from earlier work
T1 construct: sensory fibers innervating the guinea pig airways; host or cells: guinea pig airway sensory nerve fibers (native tissue)

[4] = iv, i.v. 3 mg/kg, time-points 5 min–5 h, read-out: T1/2 (i.v.) (converted)
[5] = po, p.o. 30 mg/kg, i.v. 3 mg/kg
[6] = po, p.o. 30 mg/kg, time-points 3–24 h (Ref. Cpd.), 2–24 h (Cpd. 1), read-out: T1/2 (p.o.) (converted)

T1 sequence (A0A286XP95 1-1133): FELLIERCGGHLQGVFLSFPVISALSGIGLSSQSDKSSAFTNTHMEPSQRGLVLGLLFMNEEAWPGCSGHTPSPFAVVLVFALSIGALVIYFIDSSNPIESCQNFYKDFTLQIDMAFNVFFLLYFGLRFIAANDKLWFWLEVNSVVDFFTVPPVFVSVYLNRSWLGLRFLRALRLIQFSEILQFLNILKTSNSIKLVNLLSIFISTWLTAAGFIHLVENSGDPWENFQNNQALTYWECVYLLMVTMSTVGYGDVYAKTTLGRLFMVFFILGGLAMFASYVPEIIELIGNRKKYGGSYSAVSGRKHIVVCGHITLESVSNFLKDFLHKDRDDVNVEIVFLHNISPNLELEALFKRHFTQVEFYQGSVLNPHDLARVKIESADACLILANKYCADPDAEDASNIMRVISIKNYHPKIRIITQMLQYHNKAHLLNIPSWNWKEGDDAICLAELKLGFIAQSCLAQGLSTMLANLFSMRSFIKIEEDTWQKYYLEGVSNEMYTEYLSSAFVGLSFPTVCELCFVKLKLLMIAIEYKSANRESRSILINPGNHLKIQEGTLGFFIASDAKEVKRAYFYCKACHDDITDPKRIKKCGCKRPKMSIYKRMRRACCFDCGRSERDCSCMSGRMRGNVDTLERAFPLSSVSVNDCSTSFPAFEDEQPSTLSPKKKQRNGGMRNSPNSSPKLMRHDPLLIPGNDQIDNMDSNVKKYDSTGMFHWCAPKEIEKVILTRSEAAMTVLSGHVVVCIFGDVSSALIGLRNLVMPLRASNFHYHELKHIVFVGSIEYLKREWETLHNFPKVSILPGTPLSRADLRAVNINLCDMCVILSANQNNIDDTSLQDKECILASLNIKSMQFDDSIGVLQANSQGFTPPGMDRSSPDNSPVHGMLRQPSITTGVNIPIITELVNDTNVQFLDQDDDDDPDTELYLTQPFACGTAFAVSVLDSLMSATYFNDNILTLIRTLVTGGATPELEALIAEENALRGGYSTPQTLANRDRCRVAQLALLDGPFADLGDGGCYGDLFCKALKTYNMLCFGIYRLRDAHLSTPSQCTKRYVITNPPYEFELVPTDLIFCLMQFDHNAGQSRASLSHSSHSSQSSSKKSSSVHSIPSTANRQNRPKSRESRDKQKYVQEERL

| Structure (SMILES) | Area% (UV 225 nm) of the Test Substance ([1]; HCl (0.1M), 60° C., Initial) [%] | Area% (UV 225 nm) of the Test Substance ([1]; NaOH (0.1M), 60° C., Initial) [%] | Area% (UV 225 nm) of the Test Substance ([1]; Water, 60° C., Initial) [%] | half-life [2, 4] [h] | Cmax ([2]; po, p.o. 30 mg/kg) [ng/mL] | Tmax ([2]; po, p.o. 30 mg/kg) [h] | bioavailability [2, 5] [%] | half-life [2, 6] [h] | Vd [2] [L/kg] | Time after which Cmax after p.o. administration is reached ([2]; p.o.) [h] | other results |
| --- | --- | --- | --- | --- | --- | --- | --- | --- | --- | --- | --- |
| O=c1[nH]c2cc(C(F)(F)F)ccc2n1-c1cc(C(F)(F)F)ccc1O [Reference Compound, 1,3-dihydro-1-[2-hydroxy-5-(trifluoromethyl)phenyl]-5-(trifluoromethyl)-2H-Benzimidazol-2-one] | 98.4 | 98.4 | 98.4 | 1.7 | 10000 | 3 | 145 | 2.5 | 1.1 | 3 | Area% (UV 225 nm) of the Test Substance ([1]; HCl (0.1M), 60° C., t = 52 hours): 98.4%; Area% (UV 225 nm) of the Test Substance ([1]; NaOH (0.1M), 60° C., t = 2 hours): 0.0%; Area% (UV 225 nm) of the Test Substance ([1]; Water, 60° C., t = 28 hours): 96.7%; Stability in 0.1 M NaOH (in words) ([1]; dissolved in 0.1 M NaOH): degrades instantly; Stability in solution (in words) ([1]; neutral, acidic and basic solution, 60° C.): unstable in neutral to basic solutions; Effect on activity of myelinated and non-myelinated airway sensory fibers [3]: inhibits the activity |
| O=c1[nH]c2cc(Cl)ccc2n1-c1cc(Cl)ccc1O [Compound 1, 5-Chloro-1-(5-chloro-2-hydroxy-phenyl)-1,3-dihydro-benzimidazole-2-one] | 99.7 | 99.7 | 99.7 | 0.8 | 4200 | 0.5 | 97 | 3.2 | 1.9 | 0.5 | Area% (UV 225 nm) of the Test Substance ([1]; HCl (0.1M), 60° C., t = 72 hours): 99.6%; Area% (UV 225 nm) of the Test Substance ([1]; NaOH (0.1M), 60° C., t = 72 hours): 99.4%; Area% (UV 225 nm) of the Test Substance ([1]; Water, 60° C., t = 72 hours): 99.6%; Absorption compared to the reference compound ([2]; p.o.): faster absorption; Half-life after p.o. administration compared to the reference compound ([2]; p.o.): slightly longer |
